Measurements: ChEMBL document CHEMBL1857833, “Screening and optimization of specific chemical series against human African Trypanosomiasis (HAT)”
Values after ≈ are worked out from the molar mass of the structure shown. Values joined by “and” are separate entries in the source; they are usually repeats but may differ in a detail not shown here. Equal values may be shown once.

What was measured:
[1] = DNDI: Cytotoxicity against L929 mouse fibroblasts, CYTO-SP, 24 hour; assay type: toxicity, cell-based; settings: mouse, L929 mouse fibroblasts
[2] = DNDI: Solubility in phosphate buffered saline at pH7.4 measured by nephelometry at room temperature (NEPH-RT); assay type: physicochemical; settings: pH 7.4
[3] = DNDI: Cytotoxicity against L929 mouse fibroblasts, 72 hour.; assay type: toxicity, cell-based; settings: mouse, L929 mouse fibroblasts
[4] = DNDI: Lipophilicity measured in Chromatographic hydrophobicity index (CHI) assay, pH 7.4; assay type: physicochemical; settings: buffer
[5] = test system: Trypanosoma brucei; assay: DNDI: Inhibition of Human African Trypanosomiasis, Cross 22, in vitro; assay type: functional, organism-based
[6] = test system: Trypanosoma brucei; assay: DNDI: Inhibition of Human African Trypanosomiasis, SBRI 427, in vitro; assay type: functional, organism-based
[7] = test system: Leishmania donovani; assay: DNDI: Inhibition of formation of Leishmania donovani (strain MHOM/ET/67/L82) axenic amastigotes, in vitro.; assay type: functional, organism-based
[8] = test system: Trypanosoma cruzi; assay: DNDI: Inhibition of Chagas Disease parasite Trypanosoma cruzi (Tulahuen LacZ, Clone C4), in vitro.; assay type: functional, organism-based
[9] = DNDI: Cytotoxicity against L-6 rat myoblasts from skeletal muscle cells; assay type: toxicity, cell-based, L6; settings: L-6 rat skeletal muscle myoblasts
[10] = test system: Trypanosoma brucei rhodesiense; assay: DNDI: Inhibition of Human African Trypanosomiasis (HAT), STIB 900, in vitro; assay type: functional, organism-based
[11] = test system: Plasmodium falciparum; assay: DNDI: Inhibition of the malaria parasite Plasmodium falciparum, in vitro; assay type: functional, organism-based; settings: K1
[12] = mouse, microsomes, 1 µM
Description: DNDI: in vitro intrinsic clearance in mouse liver microsomes at a concentration of 1uM

[13] = in vitro; settings: mouse, liver microsomes, t (1 / 2)
Description: DNDI: half life in mouse liver microsomes at a concentration of 1uM

[14] = Trypanosoma brucei, SBRI 427, read-out: IC50

Row | Structure (SMILES) | IC50 at 24 h [1] | solubility kinetic [2] | IC50 at 72 h [3] | chromatographic logD [4] | IC50 [5] | IC50 [6] | IC50 [6, 14] | IC50 [7] | IC50 [8] | IC50 [9] | IC50 [10] | IC50 [11] | CLint in vitro [12] | half-life at 1 µM [13]
1 | CC(C)(C)c1ccc(-c2nc(CNC3CCCCCC3)co2)cc1 | > 50 µg/mL | 25 µM (≈ 8.16 µg/mL) | < 3.13 µg/mL | 5.41 | 0.44 µg/mL (≈ 1.35 µM) | 0.3 µg/mL and 0.49 µg/mL | 0.39 µg/mL (≈ 1.19 µM) |  |  |  |  |  |  | 
2 | CCCCCC(C)NCc1coc(-c2ccc(Br)cc2)n1 (centres undefined) | > 50 µg/mL |  | 4.47 µg/mL (≈ 12.7 µM) |  | 2.01 µg/mL (≈ 5.72 µM) | 1.34 µg/mL and 1.55 µg/mL | 0.9 µg/mL (≈ 2.56 µM) | 20.4 µg/mL (≈ 58 µM) | 8.2 µg/mL (≈ 23.3 µM) | 12.7 µg/mL (≈ 36.1 µM) | 0.532 µg/mL (≈ 1.51 µM) | 2.41 µg/mL (≈ 6.86 µM) |  | 
3 | CCCCCC(C)NCc1coc(-c2ccc(Cl)c(Cl)c2)n1 (centres undefined) | 17 µg/mL (≈ 49.8 µM) |  | 4.75 µg/mL (≈ 13.9 µM) |  |  |  | 3.68 µg/mL (≈ 10.8 µM) | 16 µg/mL (≈ 46.9 µM) | 22.2 µg/mL (≈ 65 µM) | 13.3 µg/mL (≈ 39 µM) | 0.487 µg/mL (≈ 1.43 µM) | 4.3 µg/mL (≈ 12.6 µM) |  | 
4 | Brc1ccc(-c2nc(CNC3CCCCCC3)co2)cc1 | > 50 µg/mL |  | 15.7 µg/mL (≈ 44.9 µM) |  | 3.56 µg/mL (≈ 10.2 µM) | 3.22 µg/mL and 1.69 µg/mL and 3.92 µg/mL |  |  |  |  |  |  |  | 
5 | O/N=C1/CCCCCN1 | > 50 µg/mL |  | > 10 µg/mL |  |  |  | > 5 µg/mL | > 90 µg/mL | > 30 µg/mL | > 90 µg/mL | > 90 µg/mL | > 5 µg/mL |  | 
6 | CCOc1ccc(-c2nc(CNC3CCCCCC3)co2)cc1 | 25.1 µg/mL (≈ 80 µM) |  | < 3.13 µg/mL |  | 1.12 µg/mL (≈ 3.56 µM) | 1.36 µg/mL and 0.96 µg/mL | 1.46 µg/mL (≈ 4.64 µM) |  |  |  |  |  | 22 µL/min/mg | 39 min
7 | C[C@@H]1[C@H]2C[C@@H](C[C@H]1NCc1coc(-c3ccc(C(C)(C)C)cc3)n1)C2(C)C | > 50 µg/mL |  | > 50 µg/mL |  | > 5 µg/mL |  | > 5 µg/mL |  |  |  |  |  |  | 
8 | CCCCOc1ccc(-c2nc(CNC[C@@H]3CC[C@H]4C[C@@H]3C4(C)C)co2)cc1 | 16.4 µg/mL (≈ 42.9 µM) |  | < 3.13 µg/mL |  | 1.03 µg/mL (≈ 2.69 µM) | 1.54 µg/mL and 0.83 µg/mL and 0.57 µg/mL |  |  |  |  |  |  | 95 µL/min/mg | 9 min
9 | CCc1cccc(N/C(=N/O)c2ccccc2-c2ccccc2)c1 | 25.3 µg/mL (≈ 80 µM) |  | 2.4 µg/mL (≈ 7.59 µM) |  |  |  | 1.23 µg/mL (≈ 3.89 µM) | 4.96 µg/mL (≈ 15.7 µM) | 5.38 µg/mL (≈ 17 µM) | 9.67 µg/mL (≈ 30.6 µM) | 20.9 µg/mL (≈ 66.1 µM) | 4.43 µg/mL (≈ 14 µM) |  | 
10 | CC(C)(C)c1ccc(-c2nc(CNC[C@@H]3CC[C@H]4C[C@@H]3C4(C)C)co2)cc1 | > 50 µg/mL |  | > 50 µg/mL |  | > 5 µg/mL |  | > 5 µg/mL |  |  |  |  |  |  | 
11 | CC1(C)[C@H]2CC[C@@H](CNCc3coc(-c4ccc(Br)cc4)n3)[C@@H]1C2 | > 50 µg/mL |  | 50 µg/mL (≈ 128 µM) |  | > 5 µg/mL |  | > 5 µg/mL |  |  |  |  |  |  | 
12 | CCCCOc1ccc(-c2nc(CN[C@@H]3C[C@@H]4C[C@H]([C@H]3C)C4(C)C)co2)cc1 | 8.05 µg/mL (≈ 21 µM) |  | < 3.13 µg/mL |  | 0.58 µg/mL (≈ 1.52 µM) | 0.61 µg/mL and 0.72 µg/mL and 0.29 µg/mL |  |  |  |  |  |  |  | 
13 | CCC(CC)N/C(=N\O)c1ccccc1-c1ccccc1 | > 50 µg/mL |  | > 10 µg/mL |  |  |  | 1.19 µg/mL (≈ 4.21 µM) | 13.3 µg/mL (≈ 47 µM) | 7.73 µg/mL (≈ 27.4 µM) | 17.2 µg/mL (≈ 60.9 µM) | 8.99 µg/mL (≈ 31.8 µM) | 2.18 µg/mL (≈ 7.72 µM) |  | 
14 | O/N=C(\NCC1CCCCC1)c1ccccc1-c1ccccc1 | 16.1 µg/mL (≈ 52.1 µM) |  | 2.72 µg/mL (≈ 8.82 µM) |  |  |  | 2.15 µg/mL (≈ 6.97 µM) | 4.75 µg/mL (≈ 15.4 µM) | 3.63 µg/mL (≈ 11.8 µM) | 14.8 µg/mL (≈ 47.9 µM) | 18.7 µg/mL (≈ 60.6 µM) | 2.7 µg/mL (≈ 8.75 µM) |  | 
15 | O/N=C(\NC1CCCCC1)c1ccsc1 | > 50 µg/mL |  | > 10 µg/mL |  |  |  | > 5 µg/mL | 13.6 µg/mL (≈ 60.8 µM) | > 30 µg/mL | > 83.5 µg/mL | 25.9 µg/mL (≈ 115 µM) | > 5 µg/mL |  | 
16 | CC(C)(C)c1ccc(-c2nc(CNC3[C@H]4C[C@@H]5C[C@@H](C[C@H]3C5)C4)co2)cc1 (some centres undefined) | > 50 µg/mL |  | 13 µg/mL (≈ 35.8 µM) |  | 0.83 µg/mL (≈ 2.28 µM) | 0.87 µg/mL and 0.51 µg/mL and 1.1 µg/mL |  |  |  |  |  |  | 14 µL/min/mg | 59 min
17 | CC1CCC(N/C(=N\O)c2cccnc2Oc2ccccc2Cl)CC1 (centres undefined) | > 50 µg/mL |  | > 10 µg/mL |  |  |  |  | 6.18 µg/mL (≈ 17.2 µM) | 4.72 µg/mL (≈ 13.1 µM) | 50.2 µg/mL (≈ 139 µM) | 20.9 µg/mL (≈ 58.1 µM) | 4.4 µg/mL (≈ 12.2 µM) |  | 
18 | c1ccc(-c2ccc(-c3nc(CNC4[C@H]5C[C@@H]6C[C@@H](C[C@H]4C6)C5)co3)cc2)cc1 (some centres undefined) | > 50 µg/mL |  | 9.8 µg/mL (≈ 25.5 µM) |  | 0.92 µg/mL (≈ 2.39 µM) | 0.7 µg/mL and 0.85 µg/mL | 1.18 µg/mL (≈ 3.07 µM) |  |  |  |  |  |  | 
19 | CCCCCC(C)NCc1coc(-c2ccccc2)n1 (centres undefined) | 32 µg/mL (≈ 117 µM) |  | > 10 µg/mL |  |  |  | 4.72 µg/mL (≈ 17.3 µM) | 29.5 µg/mL (≈ 108 µM) | 14.6 µg/mL (≈ 53.6 µM) | 14.3 µg/mL (≈ 52.4 µM) | 0.823 µg/mL (≈ 3.02 µM) | 1.21 µg/mL (≈ 4.44 µM) |  | 
20 | C[C@@H]1[C@H]2C[C@@H](C[C@H]1NCc1coc(-c3ccc(-c4ccccc4)cc3)n1)C2(C)C | 8.15 µg/mL (≈ 21.1 µM) |  | < 3.13 µg/mL |  | 0.37 µg/mL (≈ 0.957 µM) | 0.19 µg/mL (≈ 0.492 µM) | 0.24 µg/mL (≈ 0.621 µM) |  |  |  |  |  |  | 
21 | CCCCOc1ccc(-c2nc(CNC3[C@H]4C[C@@H]5C[C@@H](C[C@H]3C5)C4)co2)cc1 (some centres undefined) | 15.9 µg/mL (≈ 41.8 µM) |  | < 3.13 µg/mL |  | 0.34 µg/mL (≈ 0.893 µM) | 0.37 µg/mL and 0.29 µg/mL | 0.36 µg/mL (≈ 0.946 µM) |  |  |  |  |  |  | 
